Target: LFA-1 (CD11a/CD18, αLβ2 integrin) (Homo sapiens, UniProt P05107+P20701)
Assay: Kd of unlabelled compound with XVA-FITC probe, flow cytometry on cells
Assay type: cell-based

Chain of LFA-1 (CD11a/CD18, αLβ2 integrin) (P20701 26-1170): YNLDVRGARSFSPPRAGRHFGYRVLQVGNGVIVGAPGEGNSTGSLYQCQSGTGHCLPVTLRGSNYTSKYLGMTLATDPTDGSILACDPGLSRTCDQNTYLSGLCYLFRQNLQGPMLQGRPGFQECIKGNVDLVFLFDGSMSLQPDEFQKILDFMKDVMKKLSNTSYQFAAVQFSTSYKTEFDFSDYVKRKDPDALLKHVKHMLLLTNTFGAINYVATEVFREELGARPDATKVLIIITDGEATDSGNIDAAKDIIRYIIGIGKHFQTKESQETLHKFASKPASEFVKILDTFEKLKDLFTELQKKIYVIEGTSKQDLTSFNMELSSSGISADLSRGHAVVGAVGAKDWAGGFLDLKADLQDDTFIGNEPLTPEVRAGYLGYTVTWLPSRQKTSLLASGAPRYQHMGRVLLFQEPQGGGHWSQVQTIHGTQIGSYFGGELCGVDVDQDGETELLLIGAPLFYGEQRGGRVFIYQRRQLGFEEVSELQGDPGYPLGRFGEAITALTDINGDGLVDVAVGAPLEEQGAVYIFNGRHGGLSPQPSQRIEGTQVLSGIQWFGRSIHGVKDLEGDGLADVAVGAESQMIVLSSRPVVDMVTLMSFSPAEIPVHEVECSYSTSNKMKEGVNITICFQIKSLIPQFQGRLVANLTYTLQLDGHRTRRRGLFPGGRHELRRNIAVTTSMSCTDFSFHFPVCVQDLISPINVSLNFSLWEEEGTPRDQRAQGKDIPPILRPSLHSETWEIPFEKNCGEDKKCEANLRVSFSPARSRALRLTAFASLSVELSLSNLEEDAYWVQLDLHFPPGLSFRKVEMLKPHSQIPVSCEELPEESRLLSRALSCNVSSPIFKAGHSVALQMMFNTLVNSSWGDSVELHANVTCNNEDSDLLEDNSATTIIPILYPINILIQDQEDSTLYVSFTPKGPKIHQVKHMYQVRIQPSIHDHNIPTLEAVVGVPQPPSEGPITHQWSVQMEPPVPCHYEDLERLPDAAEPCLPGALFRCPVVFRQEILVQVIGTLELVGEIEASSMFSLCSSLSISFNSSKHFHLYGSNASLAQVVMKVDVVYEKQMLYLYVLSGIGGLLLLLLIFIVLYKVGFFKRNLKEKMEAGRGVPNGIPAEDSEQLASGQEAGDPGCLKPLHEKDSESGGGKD
Chain of LFA-1 (CD11a/CD18, αLβ2 integrin) (P05107 23-769): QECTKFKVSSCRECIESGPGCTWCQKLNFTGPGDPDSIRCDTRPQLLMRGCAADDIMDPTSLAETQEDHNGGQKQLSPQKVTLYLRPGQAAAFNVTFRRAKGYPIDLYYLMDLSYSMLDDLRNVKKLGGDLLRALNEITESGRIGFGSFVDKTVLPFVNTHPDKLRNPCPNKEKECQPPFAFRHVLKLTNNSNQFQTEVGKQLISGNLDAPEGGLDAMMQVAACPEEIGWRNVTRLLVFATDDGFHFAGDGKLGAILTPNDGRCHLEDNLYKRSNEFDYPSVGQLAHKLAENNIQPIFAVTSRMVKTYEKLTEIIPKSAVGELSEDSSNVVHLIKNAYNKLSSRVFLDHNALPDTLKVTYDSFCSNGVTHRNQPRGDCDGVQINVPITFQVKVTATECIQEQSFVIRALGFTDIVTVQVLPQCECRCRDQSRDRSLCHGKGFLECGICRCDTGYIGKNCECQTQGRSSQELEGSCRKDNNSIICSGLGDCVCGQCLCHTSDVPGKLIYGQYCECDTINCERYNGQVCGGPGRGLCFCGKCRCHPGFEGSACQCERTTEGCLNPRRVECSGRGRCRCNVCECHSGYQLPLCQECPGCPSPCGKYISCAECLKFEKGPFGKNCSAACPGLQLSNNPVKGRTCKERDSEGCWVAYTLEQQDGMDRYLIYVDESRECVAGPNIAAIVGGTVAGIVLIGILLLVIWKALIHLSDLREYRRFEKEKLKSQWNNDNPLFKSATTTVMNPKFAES

O=C(NCc1cccc(O)c1)c1cc(Cl)c(C(=O)N[C@@H](CNC(=O)c2cc(O)cc(O)c2)C(=O)O)c(Cl)c1 [XVA-143, (S)-2-[4-(3-hydroxybenzylcarbamoyl)-2,6-dichlorobenzoylamino]-3-(3,5-dihydroxybenzoylamino) propionic acid]
Kd: 80 to 90 nM
